Consider three molecules from patent US11001795B2, “In vitro gastrointestinal model comprising lamina propria-derived cells” (EMULATE, Inc., priority 2016, dated 2021).

“Also recorded” adds a separate entry of the source.

The test system of data set [1] is Intestine On-Chip with TH1 or TH9 cells. As to the kind of experiment: Cytokine production in Intestine On-Chip seeded with plate-differentiated TH1 or TH9 cells. Format: cell-based, human. The settings on record: for IL-10: TH9 populations; for IL-6 protein: untreated vs PAM2CSK4 treated with and without Tofacitinib. From the text:
In this example, a TH1 cell population was produced from a population of mature/naive CD4+ T cells, as described in Example 7. This population of CD4+ T cells were co-stimulated with adhered CD3 and soluble CD28 antibodies, without added cytokines, for inducing differentiation of TH1 cells on plates. Unlike co-stimulation with adhered CD3 and soluble CD28 antibodies in the presence of TGFB, IL-4, and IFNg cytokines which induced differentiation of TH9 cells, as described herein. Thus, in this example, purified CD4+ T cell populations were plated into tissue culture plates for activation and differentiation into one selected T cell subtype, e.g. TH1 in one plate, and TH9 in another plate.
In order to further test whether PBMCs activated and differentiated with soluble factors were capable of inducing inflammation on chips, pro-inflammatory cytokine production was compared between untreated, PAM2CSK4 treated with and without Tofacitinib.
Experiments were designed to evaluate whether anti-CD3 and anti-CD28 co-stimulatory activation (soluble reagents) on chip would stimulate on chip T cells (previously activated and differentiated on plates) to continue functioning as activated effector cells within the chip tissue microenvironment. Further, TH1 and TH9 T cell populations underwent testing for an exacerbated response (either tissue alterations or changes in the characteristics of the T cell population) to a specific antigen stimulation, e.g. PAM2CSK4 (TLR2) bacterial agonist, with or without additional co-stimulation (i.e. using soluble reagents). Stimulation on-chip was done as a treatment on Day 7 of culture.
Evaluation of the effects of T-cell activation on the Intestine On-Chip by perfusion of soluble immune activating factors (anti-CD3 and anti-CD28) to the media is shown in FIGS. 36A-B-39A-C. In particular, activated T-cell subsets were evaluated for disease-specific cytokine production.
T cell subsets were purified from PBMCs as described herein, then stimulated in tissue culture plates using plate bound CD3 and soluble CD28 antibodies.

The test system of data set [2] is Caco-2 epithelial cell layer. Format: cell-based, human. The source says: See an exemplary permeability assay method in Example 4.
Effects of resident leukocytes isolated from LP

Data set [3] has as its system Caco-2/HUVEC/LPDC microfluidic co-cultures. The data set is described as follows: Cytokine and chemokine production in microfluidic co-cultures with LP derived cells. Type of data set: cell-based, human. How it is done:
An exemplary bacteria antigen used was PAM2CSK4. […] PAM2CSK4 refers to a synthetic diacylated lipopeptide.
In order to determine contributory factors to the trends in permeability changes observed by combinations of prednisone treatments as in Example 5, cytokine and chemokine production were measured from media samples obtained from the microfluidic cultures as described in Example 5. After an incubation time, media samples were extracted from the microfluidic device then used for determining amounts of cytokine and chemokine produced, such as IL-6 and IL-9 in FIG. 18A-B; IL-8 and G-CSF in FIG. 19A-B; GM-CSF and MCP-1 in FIG. 20A-B: MIP1b and PDGF-AB/BB in FIG. 21A-B; and RANTES in FIG. 22. Amounts of cytokine and chemokine protein are measure in pg/ml (picogram per milliliter).

The test system of data set [4] is TH1 and TH9 CD4+ T cell populations. The data set is described as follows: Bacterial antigen stimulation of TH1 and TH9 populations on cell culture plates. Type of data set: cell-based, human. The protocol:
Purified human CD4+ cells in tissue culture media, comprising soluble anti-human CD28 mAb (e.g. PharMingen, San Diego, Calif.), were added to CD3 coated plastic tissue culture plates for non-antigen-specific activation. Co-stimulation of the CD3 transmembrane signaling complex and the T cell CD28 molecule results in nonantigen specific stimulation of the TCR (CD3). After three days of incubation, the default T cell population is considered a TH1 population. After three days of co-stimulation, with or without added cytokines, cells are pipetted out of the plates, the plates are washed with media or PBS to remove any remaining cells, then harvested cells are washed at least 3 times to remove cell fragments and culture reagents, prior to use of the activated T cell population for seeding microfluidic chips on Day 0 of the chip timeline.
In this example, a TH1 cell population was produced from a population of CD4+ T cells obtained from a sample of PBMCs. This population of CD4+ T cells were co-stimulated with soluble CD3 and CD28 antibodies without added cytokine stimulation for inducing differentiation of TH1 cells. Unlike the co-stimulation with soluble CD3 and CD28 antibodies in the presence of TGFB, IL-4, and IFNg cytokines for inducing differentiation of TH9 cells as described herein.
A sample of each TH cell type was exposed to PAM2CSK4, then log 2 fold changes in protein expression of either pathway molecules or IL-9 were measured and compared to duplicate samples not treated with PAM2CSK4.

The subject of data set [5] is UC patient's resident immune cells. As to the kind of experiment: 24 hour bacterial challenge of resident immune cells cultured on-plates, secreted cytokines. Format: cell-based, human. To be noted: immune cells from inflamed UC tissue, 24 hour challenge.
Data set [6] has as its system Ulcerative Colitis patients. The settings on record: cited from earlier work.
Where [7] appears, read: prednisone alone, non-inflamed LPDC.
The mark [8] stands for this setting: prednisone, inflamed LPDCs, with and without PAM2CSK4.
Setting [9] is: prednisone, non-inflamed and inflamed LPDCs treated with PAM2CSK4.

Source text for Caco-2 epithelial layer: The following exemplary protocol outlines the sterilization/functionalization, coating, media wash, and cell seeding steps for preparing the Intestine-on-Chip with epithelial cells, e.g. Caco-, human primary epithelial cells, etc., HUVECs, and resident immune cells from lamina propria-derived cells.
An exemplary experimental chip culture schedule is presented as a timeline starting from Day 0 (seeding chips) by adding HUVEC cells and lamina propria-derived cells; Day 1 was seeding a top layer of epithelial cells and connecting to a flow system; by Day 7 treatments, such as adding PAM2CSK4; and starting Day 8 testing layers and/or removing samples for further analysis. A sample such as effluent was tested for cytokine section from cells. Other samples removed were histological samples for fixation and ICC (immunocytochemistry) such as for determining cellular appearance, determination of tight junction integrity, such as by staining for actin, ZO-1, intracellular cytokine co-localization, etc, and physiological testing, such as migration of particles through the extracellular regions of the epidermal layer. Additional tests may include RNA isolation for determining gene expression levels, such as for proteins involved with tight junction formation, cytokine expression, etc.
The chips treated with PAM2CSK4 as a model bacterial antigen are considered infected chips. […]

Turning to Tofacitinib (citrate), in data set [1] (mixture of PAM2CSK4 and Tofacitinib vs unstimulated cells), the IL-10 entry is “induced significant amounts”. The IL-6 protein entry in data set [1] was “no significant differences”.

PAM2CSK4: the “Permeability of Caco-2 epithelial cell layer” value in data set [2] is “increase in permeability”. The “Loss of barrier function” value in data set [2] (PAM2CSK4 treatment, overnight incubation, 4 LP mil/ml) is reported as “Loss of barrier function is shown”. Further, the “IL-9 production, apical” value in data set [3] (PAM2CSK4, 1 and 2 LP mil/ml) is “increased”. Further, the “IL-9 production, basal” value in data set [3] (PAM2CSK4, 4 LP mil/ml) is given as “higher level of IL-9 production”. Moreover, the IL-9 production result in data set [3] (PAM2CSK4, LP leukocyte co-cultures for each source) is recorded as “induce IL-9”; in data set [3] (PAM2CSK4, non-inflamed and inflamed UC LPDC co-cultures, over endogenous levels), “significantly induced IL-9 production”. The IL6 response entry in data set [3] (PAM2CSK4, epithelial cells without LP) is reported as “induce an IL6 response”; in data set [3] (PAM2CSK4, healthy LP leukocyte co-cultures), “induce an IL6 response”. The IL-6 production result in data set [3] (PAM2CSK4, inflamed LPDC samples) is “increased IL-6 production”; in data set [3] (PAM2CSK4, non-inflamed LPDC samples), “does not appear to have an effect”; in data set [3] (PAM2CSK4 at 1, 2 and 4 LP mil/ml vs co-cultures with no PAM2CSK4) it was “higher level of IL-6 production”. For the same molecule, the “Concentration of cytokine protein signaling” value in data set [4] (PAM2CSK4, TH1 (CD) and TH9 (UC) cells on-plates) is “increases in the concentration of cytokine protein signaling”. The IL-9 result in data set [4] (PAM2CSK4 stimulation, TH1 populations) is recorded as “measurable; also recorded: did significantly increase”. The IRF4 result in data set [4] (PAM2CSK4 stimulation, TH1 populations, log 2 fold change) is reported as “measurable”. The “IL-9, or IL-9 activation factors, log 2 fold changes” value in data set [4] (PAM2CSK4 stimulation, TH9 populations in tissue culture plate) was “did not significantly increase”. Also, the IL-10 result in data set [1] (unstimulated vs Pam stimulated) is on record as “no insignificant differences”. For the same molecule, the IL-8 result in data set [1] (antigen specific stimulation (PAM2CSK4) on-chip) is listed as “increased”. Further, the IL-6 protein entry in data set [1] is “no significant differences”. The “Response (secreted cytokines) to PAM2CSK4” value in data set [5] is given as “stronger response”. In addition, the “Avg. Z Height (z-arrow) of Caco-2 epithelial layer” value in the data set with Caco-2 epithelial layer was found to be 84 um+/−11.

As for `C[C@]12C=CC(=O)C=C1CC[C@@H]1[C@@H]2C(=O)C[C@@]2(C)[C@H]1CC[C@]2(O)C(=O)CO` [prednisone], the PDGF-AA/BB production result in data set [3] (prednisone alone) is recorded as “did not appear to be a reduction in PDGF-AA/BB”. The IL-8 production entry in data set [3] (prednisone alone or PAM2CSK4, non-inflamed LPDC) is reported as “did not appear to be a reduction in IL-8”. Also, in data set [3] (setting [7]), the GM-CSF production entry is given as “did not appear to be a reduction in GM-CSF” and the MCP-1 production entry is “did not appear to be a reduction in MCP-1”. In data set [3] (setting [8]), the GM-CSF production entry is “reduced GM-CSF production”, the IL-8 production result was “trend for reducing IL-8 production” and the MCP-1 production result was “reduced MCP-1 production”. In addition, in data set [3] (prednisone, inflamed UC LPDC, endogenous or PAM2CSK4 induced), the IL-6 production entry was “reduce IL-6 production”. Also, the IL-6 production result in data set [3] (prednisone, non-inflamed LPDCs) is “does not appear to have an effect”. Further, the PDGF-AA/BB production result in data set [3] (prednisone, non-inflamed LPDCs (printed in the MIP-1b section)) is listed as “trend for reducing PDGF-AA/BB production”. In data set [3] (prednisone, non-inflamed and inflamed LPDCs (stated in heading only)), the MIP-1b production result is “Tends to Reduce MIP-1b Production”. In data set [3] (setting [9]), the PDGF-AA/BB production entry was “trend for reducing PDGF-AA/BB production” and the RANTES production result is “trend for reducing RANTES production”. In addition, the IL-9 production entry in data set [3] (prednisone, non-inflamed and inflamed UC LPDC, regardless of PAM2CSK4) is “production is reduced; also recorded: significantly reduced”. The G-CSF production entry in data set [3] (prednisone, non-inflamed or inflamed LPDCs, with and without PAM2CSK4) is reported as “trend for reducing G-CSF production”. Besides, the “Inflammatory responses (secreted cytokines) to PAM2CSK4 treatment” value in data set [3] (prophylactic prednisone on-chip, noninflamed and inflamed UC resident immune cells) was “suppresses the inflammatory responses”. In data set [6] (Ulcerative Colitis patients), the Treated patients non-responsive entry is listed as “around 16%”, the “Treated patients with full remission” value is recorded as 54% and the “Treated patients with partial remission” value is on record as 30%. Further, the “Undesirable Side Effects” value in data set [6] (in vivo) was “increased Risk of infection, Weight gain, Hyperglycemia, Hypertension, Bone loss”.
